Structures are written as SMILES. Like-named read-outs stand apart in the source and are kept apart here.

The text below walks through data of patent US9023865B2, “Compounds that are ERK inhibitors” (Merck Sharp & Dohme Corp., priority 2011, dated 2015).

The target of this assay is Active Human ERK2 (hERK2) (Homo sapiens (Human), UniProt P28482). In words: Active Human ERK2 (hERK2) Activity Assay (IMAP-FP). It counts as biochemical. How it is done: Assays Active Human ERK2 (hERK2) Activity Assay:
Activated ERK2 activity was determined in an IMAP-FP assay (Molecular Devices). […] The final reaction in each well of 25 μL consists of 0.5 nM hERK2, 900 nM unlabeled peptide, 80 nM labeled-peptide, and 30 μM ATP. Phosphorylation reactions were allowed to proceed for 60 minutes and were immediately quenched by the addition of […] IMAP detection beads (1:1000 dilutions) in IMAP binding buffer (Molecular Devices) with 24 mM NaCl. Plates were read on EnVision reader after 60 minutes binding equilibration using Fluorescence Polarization protocol (Perkin Elmer).

Where [1] appears, read: phosphorylated active hERK2, 30 μM ATP, average, read-out: ERK 2 Human average IC50.
Where [2] appears, read: read-out: AERK2 IC50 (Active human ERK2 Activity Assay).

Chain of Active Human ERK2 (hERK2) (P28482 whole entry): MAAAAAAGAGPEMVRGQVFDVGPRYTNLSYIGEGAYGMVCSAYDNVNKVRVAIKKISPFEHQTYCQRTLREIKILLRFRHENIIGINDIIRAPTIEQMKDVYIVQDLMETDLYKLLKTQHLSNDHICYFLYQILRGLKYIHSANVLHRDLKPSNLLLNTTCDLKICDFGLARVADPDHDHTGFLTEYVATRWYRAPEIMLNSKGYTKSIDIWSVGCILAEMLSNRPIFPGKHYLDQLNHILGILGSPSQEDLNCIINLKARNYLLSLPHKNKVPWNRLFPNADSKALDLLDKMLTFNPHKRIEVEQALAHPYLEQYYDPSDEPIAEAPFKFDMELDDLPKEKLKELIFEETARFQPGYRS

With `Cc1cc(-c2n[nH]c3cc(NC(=O)NCc4cccc5ccccc45)ncc23)ccn1` [Example 32, 1-[3-(2-methylpyridin-4-yl)-1H-pyrazolo[4,3-c]pyridin-6-yl]-3-(naphthalen-1-ylmethyl)urea], the half-inhibitory concentration (IC50) under setting [1] is 3.92 nM. The same measure, in the same setting: under `COCCNC(=O)Nc1cc2[nH]nc(-c3ccc(F)cc3)c2cn1` [Example 623, 1-[3-(4-Fluorophenyl)-1H-pyrazolo[4,3-c]pyridin-6-yl]-3-(2-methoxyethyl)urea] stands 1.93 nM; under `CC(C)Oc1ccc(-c2n[nH]c3cc(NC(=O)N[C@H](C)c4ccc(F)cc4)ncc23)cn1` [Example 250], 2.36 nM; under `C[C@@H](NC(=O)Nc1cc2[nH]nc(-c3cnn(C4COC4)c3)c2cn1)c1ccccc1` [Example 647], 0.464 nM. On the same count and under the same terms, under `CCCNC(=O)Nc1cc2[nH]nc(-c3ccnc(C)c3)c2cn1` [Example 241] stands 2.73 nM; under `C[C@@H](NC(=O)Nc1cc2[nH]nc(-c3cnoc3)c2cn1)c1ccccc1` [Example 640], 3.6 nM; under `Cc1cc(-c2n[nH]c3cc(NC(=O)N[C@H]4[C@H](c5ccccc5C)CN(C)[C@H]4C)ncc23)ccn1` [Example 555], 0.426 nM. Still for that read-out and setting: under `COC[C@@H](NC(=O)Nc1cc2[nH]nc(-c3ccc4c(c3)nnn4C)c2cn1)c1ccc(F)cc1` [Example 301] stands 0.562 nM; under `Cc1cc(-c2n[nH]c3cc(NC(=O)NCc4ccc(Cl)cc4F)ncc23)ccn1` [Example 521], 3.31 nM. As for `CNC(=O)CNC(=O)Nc1cc2[nH]nc(-c3ccnc(C)c3)c2cn1` [Example 186], under setting [1], the IC50 was found to be 43.2 nM. As for `C[C@@H](NC(=O)Nc1cc2[nH]nc(CNCC(F)F)c2cn1)c1ccccc1` [Example 562], the IC50 under setting [1] was found to be 25.3 nM. On the same count and under the same terms, the same measure for `Cc1cc(-c2n[nH]c3cc(NC(=O)NC(c4cccnc4)C(F)F)ncc23)ccn1` (centres unmarked) [Example 509]: 3.07 nM.

For `C[C@@H](NC(=O)Nc1cc2[nH]nc(-c3ccc(S(C)(=O)=O)cc3)c2cn1)c1ccccc1` [Example 89, 1-{3-[4-(methylsulfonyl)phenyl]-1H-pyrazolo[4,3-c]pyridin-6-yl}-3-[(1R)-1-phenylethyl]urea], the IC50 under setting [1] came out at 1.33 nM and the IC50 under setting [2] was 0.2 to 1.7 nM. With `Cc1cc(-c2n[nH]c3cc(NC(=O)NCc4cnsc4)ncc23)ccn1` [Example 423], the IC50 under setting [1] was 0.594 nM. Same read-out and setting: the same measure for `COC(=O)C(NC(=O)Nc1cc2[nH]nc(-c3ccnc(C)c3)c2cn1)C(F)(F)F` (centres unmarked) [Example 457]: 31.1 nM; for `Cc1cc(-c2n[nH]c3cc(NC(=O)NCC4(Nc5ccccc5)CCOCC4)ncc23)ccn1` [Example 398]: 1.13 nM; for `Cc1cc(-c2n[nH]c3cc(NC(=O)N[C@@H]4CCSc5ccccc54)ncc23)ccn1` [Example 264]: 2.08 nM.

As to `Cc1cc(-c2n[nH]c3cc(NC(=O)NC(c4ccccc4)C4CCCO4)ncc23)ccn1` (centres unmarked) [Example 237], under setting [1], the IC50 came to 0.566 nM. Same read-out and setting: under `C[C@@H](NC(=O)Nc1cc2[nH]nc(C3CCC3)c2cn1)c1ccc(F)cc1` [Example 144] stands 3.46 nM. The same measure, in the same setting: the same measure for `Cc1cc(-c2n[nH]c3cc(NC(=O)N[C@H]4CN(C)C[C@@H]4c4ccccc4C(F)(F)F)ncc23)ccn1` [Example 178, 1-((3R,4S)-1-Methyl-4-(2-(trifluoromethyl)phenyl)pyrrolidin-3-yl)-3-(3-(2-methylpyridin-4-yl)-1H-pyrazolo[4,3-c]pyridin-6-yl)urea]: 0.527 nM. On the same count and under the same terms, the same measure for `COCCOC[C@@H](NC(=O)Nc1cc2[nH]nc(C(F)F)c2cn1)c1ccccc1` [Example 694]: 6.03 nM; for `Cc1cc(-c2n[nH]c3cc(NC(=O)NCCOc4ccccc4)ncc23)ccn1` [Example 453]: 1.62 nM; for `Cc1cc(-c2n[nH]c3cc(NC(=O)N[C@H]4CN[C@H](c5ccccc5)C4)ncc23)ccn1` [Example 374]: 351 nM.

With `Cc1cc(-c2n[nH]c3cc(NC(=O)N[C@H]4CN(C)C[C@@H]4c4ccccc4F)ncc23)ccn1` [Example 185], the IC50 under setting [1] was found to be 37.3 nM. Same read-out and setting: under `Cc1cc(-c2n[nH]c3cc(NC(=O)NCc4ccccn4)ncc23)ccn1` [Example 479] stands 3.02 nM; under `Cc1cc(-c2n[nH]c3cc(NC(=O)NCc4ccccc4OC(F)F)ncc23)ccn1` [Example 441], 0.309 nM. The same measure, in the same setting: the same measure for `COCC(NC(=O)Nc1cc2[nH]nc(-c3ccnc(C)c3)c2cn1)c1ccccn1` (centres unmarked) [Example 348]: 2.16 nM; for `COC[C@@H](NC(=O)Nc1cc2[nH]nc(-c3ccc4nnn(C)c4c3)c2cn1)c1ccccc1` [Example 697]: 0.221 nM.

`Cc1cc(-c2n[nH]c3cc(NC(=O)NC(C)c4nnco4)ncc23)ccn1` (centres unmarked) [Example 556]: under setting [1], the IC50 came to 232 nM. On the same count and under the same terms, the same measure for `Cc1cc(-c2n[nH]c3cc(NC(=O)N[C@@H](CN)c4ccccc4)ncc23)ccn1` [Example 331]: 29.1 nM. Same read-out and setting: under `Cc1cc(-c2n[nH]c3cc(NC(=O)NCC4(N(C)C)CCC4)ncc23)ccn1` [Example 193] stands 125 nM. For `Cc1cc(-c2n[nH]c3cc(NC(=O)NCc4c(F)cccc4F)ncc23)ccn1` [Example 52, 1-(2,6-difluorobenzyl)-3-[3-(2-methylpyridin-4-yl)-1H-pyrazolo[4,3-c]pyridin-6-yl]urea], the IC50 is 0.655 nM under setting [1] and 0.2 to 1.7 nM under setting [2].

Turning to `C[C@@H](NC(=O)Nc1cc2[nH]nc(C(F)F)c2cn1)c1ccc(F)cc1` [Example 669], the IC50 under setting [1] stood at 21.6 nM. Still for that read-out and setting: under `COC[C@@H](NC(=O)Nc1ncc2c(-c3ccnc(C)c3)n[nH]c2c1F)c1ccccc1` [Example 542] stands 0.269 nM; under `Cc1cc(-c2n[nH]c3cc(NC(=O)NCc4ccc(Cl)cn4)ncc23)ccn1` [Example 478], 6.01 nM; under `CSC[C@@H](NC(=O)Nc1cc2[nH]nc(-c3ccnc(C)c3)c2cn1)c1ccccc1` [Example 570], 0.257 nM.

With `Cc1cc(-c2n[nH]c3cc(NC(=O)N[C@@H](c4ccccc4)[C@@H]4CCCO4)ncc23)ccn1` [Example 554], the IC50 under setting [1] worked out at 0.262 nM. On to `COC[C@@H](NC(=O)Nc1cc2[nH]nc(-c3ccnc(C)c3)c2cn1)c1cc(F)ccn1` [Example 169], for which the IC50 under setting [1] stood at 7.33 nM.

Regarding `Cc1cc(-c2n[nH]c3cc(NC(=O)NCCN4CCC(c5ccccc5)C4)ncc23)ccn1` (centres unmarked) [Example 401], the IC50 under setting [1] worked out at 20 nM. Take `Cc1cc(-c2n[nH]c3c(Cl)c(NC(=O)NCc4ccccc4)ncc23)ccn1` [Example 92, 1-benzyl-3-[7-chloro-3-(2-methylpyridin-4-yl)-1H-pyrazolo[4,3-c]pyridin-6-yl]urea]: the half-maximal inhibitory concentration (IC50) under setting [1] came out at 6.25 nM. Still for that read-out and setting: the same measure for `COCCNC(=O)Nc1cc2[nH]nc(-c3ccnc(C4CC4)c3)c2cn1` [Example 629]: 1.5 nM; for `COC[C@H](NC(=O)Nc1cc2[nH]nc(-c3ccnc(F)c3)c2cn1)c1ccccc1` [Example 601]: 20.6 nM; for `Cc1cc(-c2n[nH]c3cc(NC(=O)NCc4ncc(F)cc4F)ncc23)ccn1` [Example 450]: 1.91 nM. Still for that read-out and setting: under `Cc1cc(-c2n[nH]c3cc(NC(=O)NC[C@H](C)c4ccccc4)ncc23)ccn1` [Example 621] stands 1.29 nM. On the same count and under the same terms, under `O=C(NCC1CCOC1)Nc1cc2[nH]nc(-c3ccc(F)cc3)c2cn1` (centres unmarked) [Example 220] stands 2.46 nM; under `COCCNC(=O)Nc1cc2[nH]nc(-c3ccccc3)c2cn1` [Example 627], 6.09 nM; under `Cc1cc(-c2n[nH]c3cc(NC(=O)NC(CO)c4cc(F)cc(F)c4)ncc23)ccn1` (centres unmarked) [Example 365], 0.603 nM. In the case of `C[C@@H](NC(=O)Nc1cc2[nH]nc(C(=O)NCC34CC5CC(C3)C(O)C(C5)C4)c2cn1)c1ccccc1` (some centres unmarked) [Example 127], the IC50 under setting [1] came out at 14.7 nM.

On to `Cc1cc(-c2n[nH]c3cc(NC(=O)NC4CCc5nc(N)sc5C4)ncc23)ccn1` (centres unmarked) [Example 504], for which the IC50 under setting [1] came to 1.36 nM. Still for that read-out and setting: under `Cc1cc(-c2n[nH]c3cc(NC(=O)NC4COC4)ncc23)ccn1` [Example 465] stands 320 nM; under `Cc1cc(-c2n[nH]c3cc(NC(=O)NCc4ncccc4Cl)ncc23)ccn1` [Example 448], 0.827 nM; under `COC[C@@H](NC(=O)Nc1cc2[nH]nc(-c3ccncc3)c2cn1)c1ccccc1` [Example 545], 0.236 nM. On to `Cc1cc(-c2n[nH]c3cc(NC(=O)NC4CC(=O)Nc5ccc(F)cc54)ncc23)ccn1` (centres unmarked) [Example 396], for which, under setting [1], the IC50 is 8.46 nM.

For the molecule `Cc1cc(-c2n[nH]c3cc(NC(=O)NCc4cccc(Cl)c4)ncc23)ccn1` [Example 27, 1-(3-chlorobenzyl)-3-[3-(2-methylpyridin-4-yl)-1H-pyrazolo[4,3-c]pyridin-6-yl]urea], the IC50 by setting is: under setting [1], 0.713 nM; under setting [2], 0.2 to 1.7 nM. Consider `COC[C@H](Cc1ccccc1)NC(=O)Nc1cc2[nH]nc(-c3ccnc(C)c3)c2cn1` [Example 494], for which the IC50 under setting [1] was 4.34 nM. For `Cc1cc(-c2n[nH]c3cc(NC(=O)NCC4(O)CCN(C)CC4)ncc23)ccn1` [Example 388], under setting [1], the IC50 amounted to 6.66 nM. The same measure, in the same setting: under `C[C@@H](NC(=O)Nc1cc2[nH]nc(C3CC3(F)F)c2cn1)c1ccc(F)cc1` (some centres unmarked) [Example 165] stands 8.83 nM; under `C[C@@H](NC(=O)Nc1cc2[nH]nc(C(C)(C)O)c2cn1)c1ccccc1` [Example 611], 122 nM. As to `COc1cccc(F)c1CN1CCC[C@@H](NC(=O)Nc2cc3[nH]nc(-c4ccnc(F)c4)c3cn2)C1` [Example 649], under setting [1], the 50% inhibitory concentration (IC50) amounted to 1.06 nM. With `Cc1cc(-c2n[nH]c3cc(NC(=O)Nc4noc5cnccc45)ncc23)ccn1` [Example 360], under setting [1], the IC50 is 0.378 nM. In the case of `Cc1ccc(C2(NC(=O)Nc3cc4[nH]nc(-c5ccnc(C)c5)c4cn3)CC2)cc1` [Example 342], the IC50 under setting [1] was 40.9 nM. Regarding `COC[C@@H](NC(=O)Nc1cc2[nH]nc(C3CC3(F)F)c2cn1)c1ccccc1` (some centres unmarked) [Example 163], the IC50 under setting [1] turned out to be 4.89 nM.
